Measurements as given in PubChem BioAssay AID1963829 (Molecular Pharmacology Branch, DTP, NCI, 2024).

System: 935938-334-R-J1-PDC complex spheroid viability
Experiment: Anticancer human tumor 935938-334-R-J1-PDC patient-derived small intestine adenocarcinoma cell line growth inhibition [POLQ]
Conditions: for IC50: curve of first compound; for viability, T/C: stronger effect = lower value; active means viability on the fitted dose curve at most 10% of control; inactive means the rest
Protocol: Multicellular complex tumor spheroid response to Polymerase (POL) inhibitors (novobiocin, ART-558, RP6685) in combination with a variety of drugs and investigational agents in selected tumor cell lines
The POL inhibitors (novobiocin, ART-558, and RP6685) were evaluated both individually and in combination with standard of care and investigational anticancer small molecules within a complex spheroid model of solid tumors. . Complex spheroids include a stromal component modeled by human endothelial cells (HUVEC) and fibroblasts modeled by human mesenchymal stem cells (MSCs). The concentration ranges selected for each drug and investigational agent were based upon clinically achievable concentrations if the clinical Cmax of the agent was known.
Compounds. The drugs and investigational agents: novobiocin (NSC847541), ART-558 (NSC835418), RP-6685 (NSC848927), peposertib (NSC802822), ceralasertib (NSC780249), elimusertib (NSC800525), camonsertib (NSC841442), AZD-1390 (NSC803789), olaparib (NSC753686), talazoparib (NSC767125), rucaparib (NSC756644), sotorasib (NSC818433), MRTX-1133 (NSC836407), SN-38 (NSC673596), topotecan (NSC609699), epotoside (NSC141540), doxorubicin (NSC123127), gemcitabine (NSC613327), 5-fluorouracil (NSC19893), paclitaxel (NSC125973), vemurafenib (NSC761431), MSA-2 (NSC828583), SN-011 (NSC837082), adavosertib (NSC754352), prexasertib (NSC758257), carboplatin (NSC241240) and oxaliplatin (NSC266046), were obtained from the National Cancer Institute (NCI) Developmental Therapeutics Program Chemical Repository (21). The FDA-approved anticancer drug set is available from the Developmental Therapeutics Program at https://dtp.cancer.gov/organization/dscb/obtaining/. […] The stock solutions were prepared in dimethyl sulfoxide (DMSO, Sigma-Aldrich, St. Louis, MO, cat. D2650), except for the platinum compounds which were prepared in saline (Quality Biological, Gaithersburg, MD, cat. 114-055-101), at 800-fold the tested concentration and stored at -70 degrees C prior to their use. All drugs and investigational agents were tested over a range starting from a high concentration at or near the clinical Cmax and decreasing in half-log increments. If the clinical Cmax for an agent had not been determined, the highest concentration tested was 10 microM, except for SN-38, which was tested at a high concentration of 1 microM.
Cell Culture. All cells were maintained in an incubator at 37 degrees C and 5% CO2 with 95% humidity. The PDC lines were cultured according to standard operating procedures established by the NCI PDMR (https://pdmr.cancer.gov). Table 3 of the manuscript, lists the cell lines along with the number of the three cell types plated to form the mct-spheroids and media for tumor cell growth. After thawing, all PDC lines, except 997537-175-T-J1-PDC and 415267-285-R-J2-PDC, were cultured in Matrigel-coated flasks prepared with a working solution of 1X Ham's F-12 nutrient mix, without supplementation (Thermo Fisher Scientific, cat. 11765054), 100 U/mL penicillin-streptomycin (Thermo Fisher Scientific, cat. 15140122), and 2.5% Matrigel (Corning Inc., Corning, NY, cat. 354248) for the first three passages. The two PDC lines 997537-175-T-J1-PDC and 415267-285-R-J2-PDC were cultured on uncoated flasks. The 857933-349-R-J2-PDC line was cultured in 6C/Colon 1B media containing advanced DMEM/F-12 (Thermo Fisher Scientific, cat. 12634028), 10 mM HEPES (Thermo Fisher Scientific, cat. 15630080), 1X GlutaMAX supplement (Thermo Fisher Scientific, cat. 35050061), 0.1 mg/mL primocin (InvivoGen, San Diego, CA, cat. ant-pm-2), 10% defined fetal bovine serum, heat inactivated (HyClone Laboratories Inc., Logan, UT, cat. SH30070.03HI), 50% L-WRN conditioned media (ATCC, cat. CRL-3276), 1.25 mM N-Acetyl-L-cysteine (Sigma-Aldrich, cat. A9165), 10 mM nicotinamide (Sigma-Aldrich, cat. N0636), 1X B-27 supplement (Thermo Fisher Scientific, cat. 17504044), 1X N-2 supplement (Thermo Fisher Scientific, cat. […]

[1] = second compound 0.0316 µM, first compound 0.00316 µM
[2] = second compound 0.0316 µM, first compound 0.01 µM
[3] = second compound 0.0316 µM, first compound 0.0316 µM
[4] = second compound 0.0316 µM, first compound 0.1 µM
[5] = second compound 0.0316 µM, first compound 0.316 µM
[6] = second compound 0.0316 µM, first compound 1 µM
[7] = second compound 0.1 µM, first compound 0.00316 µM
[8] = second compound 0.1 µM, first compound 0.01 µM
[9] = second compound 0.1 µM, first compound 0.0316 µM
[10] = second compound 0.1 µM, first compound 0.1 µM
[11] = second compound 0.1 µM, first compound 0.316 µM
[12] = second compound 0.1 µM, first compound 1 µM
[13] = second compound 0.316 µM, first compound 0.00316 µM
[14] = second compound 0.316 µM, first compound 0.01 µM
[15] = second compound 0.316 µM, first compound 0.0316 µM
[16] = second compound 0.316 µM, first compound 0.1 µM
[17] = second compound 0.316 µM, first compound 0.316 µM
[18] = second compound 0.316 µM, first compound 1 µM
[19] = second compound 1 µM, first compound 0.00316 µM
[20] = second compound 1 µM, first compound 0.01 µM
[21] = second compound 1 µM, first compound 0.0316 µM
[22] = second compound 1 µM, first compound 0.1 µM
[23] = second compound 1 µM, first compound 0.316 µM
[24] = second compound 1 µM, first compound 1 µM
[25] = second compound 3.16 µM, first compound 0.00316 µM
[26] = second compound 3.16 µM, first compound 0.01 µM
[27] = second compound 3.16 µM, first compound 0.0316 µM
[28] = second compound 3.16 µM, first compound 0.1 µM
[29] = second compound 3.16 µM, first compound 0.316 µM
[30] = second compound 3.16 µM, first compound 1 µM
[31] = second compound 10 µM, first compound 0.00316 µM
[32] = second compound 10 µM, first compound 0.01 µM
[33] = second compound 10 µM, first compound 0.0316 µM
[34] = second compound 10 µM, first compound 0.1 µM
[35] = second compound 10 µM, first compound 0.316 µM
[36] = second compound 10 µM, first compound 1 µM
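Further: spheroids exposed to drugs for seven days before viability read.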
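Wherever viability, T/C is given: 100% = DMSO vehicle control wells.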

CCc1c2c(nc3ccc(O)cc13)-c1cc3c(c(=O)n1C2)COC(=O)[C@]3(O)CC + COC1C(OC(N)=O)C(O)C(Oc2ccc3c(O)c(NC(=O)c4ccc(O)c(CC=C(C)C)c4)c(=O)oc3c2C)OC1(C)C
inactive: viability, T/C [1] 82% | viability, T/C [2] 59.3% | viability, T/C [3] 38% | viability, T/C [4] 29.4% | viability, T/C [5] 22.9% | viability, T/C [6] 27.8% | viability, T/C [7] 75.8% | viability, T/C [8] 73.7% | viability, T/C [9] 40.1% | viability, T/C [10] 29.6% | viability, T/C [11] 28.7% | viability, T/C [12] 30.5% | viability, T/C [13] 68% | viability, T/C [14] 63.8% | viability, T/C [15] 36.2% | viability, T/C [16] 27.3% | viability, T/C [17] 29% | viability, T/C [18] 22.4% | viability, T/C [19] 62.9% | viability, T/C [20] 76.8% | viability, T/C [21] 31.5% | viability, T/C [22] 26.8% | viability, T/C [23] 29.3% | viability, T/C [24] 22.9% | viability, T/C [25] 73.1% | viability, T/C [26] 57.4% | viability, T/C [27] 31.6% | viability, T/C [28] 30.2% | viability, T/C [29] 27.8% | viability, T/C [30] 28.4% | viability, T/C [31] 53.2% | viability, T/C [32] 49.2% | viability, T/C [33] 34.2% | viability, T/C [34] 30.1% | viability, T/C [35] 31.8% | viability, T/C [36] 31.3%
17.8 nM: IC50 (second compound 0.316 µM)
5.3 nM: IC50 (second compound 10 µM)
13.9 nM: IC50 (second compound 3.16 µM)
22.6 nM: IC50 (second compound 0.1 µM)
16.6 nM: IC50 (second compound 0.0316 µM)
18.2 nM: IC50 (second compound 1 µM)

CCc1c2c(nc3ccc(O)cc13)-c1cc3c(c(=O)n1C2)COC(=O)[C@]3(O)CC + Cc1cccc(N(C)C(=O)C2C(O)CCN2c2nc(C)cc(C(F)(F)F)c2C#N)c1
24.5 nM: IC50 (second compound 0.316 µM)
15.8 nM: IC50 (second compound 0.0316 µM)
24.3 nM: IC50 (second compound 3.16 µM)
19.9 nM: IC50 (second compound 0.1 µM)
inactive: viability, T/C [1] 96.3% | viability, T/C [2] 55.6% | viability, T/C [3] 41.4% | viability, T/C [4] 33.8% | viability, T/C [5] 36.6% | viability, T/C [6] 29.1% | viability, T/C [7] 98.1% | viability, T/C [8] 66.6% | viability, T/C [9] 38.9% | viability, T/C [10] 32.5% | viability, T/C [11] 33.4% | viability, T/C [12] 32.4% | viability, T/C [13] 109% | viability, T/C [14] 83% | viability, T/C [15] 40.7% | viability, T/C [16] 34% | viability, T/C [17] 38.3% | viability, T/C [18] 35.4% | viability, T/C [19] 82.9% | viability, T/C [20] 63.2% | viability, T/C [21] 43.5% | viability, T/C [22] 36.6% | viability, T/C [23] 33.3% | viability, T/C [24] 29.2% | viability, T/C [25] 87.6% | viability, T/C [26] 85.3% | viability, T/C [27] 39.4% | viability, T/C [28] 37.7% | viability, T/C [29] 39.3% | viability, T/C [30] 31.7% | viability, T/C [31] 115% | viability, T/C [32] 66.9% | viability, T/C [33] 43.2% | viability, T/C [34] 45.9% | viability, T/C [35] 35% | viability, T/C [36] 31.5%
26.1 nM: IC50 (second compound 10 µM)
22.7 nM: IC50 (second compound 1 µM)
